The record followed here is patent US8507488B2, “Fused nitrogen containing heterocycles and compositions thereof as kinase inhibitors” (IRM LLC, priority 2008, dated 2013).

The subject of one assay is parental BaF3 cells. Description: Proliferation of parental (untransformed) Ba/F3 cells maintained with IL3. It is filed as cell-based, murine. The note with it: Mus musculus, BaF3, parental Ba/F3 cells; read-out: Ba/F3 IC 50. The protocol: (§1) Test compounds were dissolved in DMSO (10 mM) and transferred into 1.4 mL flat bottom or V-shaped Matrix tubes carrying a unique 2D matrix chip by individual compound hubs. The numbers of these chips were distinctively linked to the individual compound identification numbers. The stock solutions were stored at −20° C. if not used immediately. For the test procedure the vials were defrosted and identified by a scanner whereby a working sheet is generated that guides the subsequent working steps.
(§2) Compound dilutions were made in 384 well plates. This format enabled the assay of maximally 28 individual test compounds at 12 concentrations (single points) including 2 reference compounds. The dilution protocol included the production of pre-dilution plates, master plates and assay plates: • Compound plates: 30 μL of individual compound (10 mM) DMSO solution including standard compound were transferred into columns 1 and 13 of a 384 well plate. 20 μL of DMSO were added to the rest of the wells and the compounds were serially diluted (1:3) by transferring 10 μL from a well in column 1 or 13 to the next well in column 2 or 14 respectively and successively with the help of a Minitrack robot. • Assay plates: Identical assay plates were then prepared by adding […] each of compound dilutions of the compound plates into 384-well “assay plates”. In the following the compounds were mixed with 50 μL of assays components (cells or enzyme) and tested for their inhibitory activity.
(§3) The cell line used is the luciferase expressing Ba/F3 murine hematopoietic progenitor cell line transformed with human Tel-TrkA, Tel-TrkB or Tel-TrkC cDNAs (Ba/F3 EN A/B/C). These cells maintained in RPMI/10% fetal bovine serum (RPMI/FCS) supplemented with penicillin 50 mg/mL, streptomycin 50 mg/mL and L-glutamine […]. Untransformed Ba/F3 cells were similarly maintained with the addition 5 ng/ml of murine recombinant IL3. 50 μl of a Ba/F3 or Ba/F3 EN A/B/C cell suspension were plated in Greiner 384 well microplates (white)) at a density of 2000 cells per well. 50 nl of serially diluted test compound (10-0.0001 mM in DMSO solution) is added to each well. The cells were incubated for 48 hours at 37° C., 5% CO2. 25 μl of Bright Glo® (Promega) luciferase substrate is added to each well. The emited luminiscence is quantified using the ACQUEST™ luminescence system (Molecular Devices). IC50 values were calculated by linear regression analysis of the percentage inhibition of each compound at 12 concentrations.

In another assay the target is T1, Tel-TrkB (Homo sapiens, UniProt Q16620).
T1 construct: dimerization domain of Tel (ETV6) transcription factor (fusion partner, human ETV6 P41212); expressed in transfected cells; host or cells: luciferase expressing Ba/F3 murine hematopoietic progenitor cells; the other entry of the earlier key: ETV6 (P41212, Transcription factor ETV6)
As to the kind of experiment: Inhibition of proliferation of Ba/F3 cells expressing Tel-TrkB (BaF3/Tel-TrkB). Format: cell-based. As to conditions: Ba/F3 Tel-TrkB cells; read-out: Ba/F3 Tel-TrkB IC 50. The method, then: as §1, §2
(§4) Compounds of Formula (I) were tested for their antiproliferative effect on Ba/F3 cells expressing either Tel-TrkA, Tel-TrkB or Tel-TrkC and an additional panel of 34 selected diverse kinases activated by fusion to the dimerizing partners Bcr or Tel (Abl, A1K, BMX, EphA3, EphB2, FGFR2, FGFR3, FGFR4, FGR, FLT1, FLT3, FLT4, FMS, IGF1R, InsR, JAK1, JAK2, JAK3, KDR, Kit, Lck, Lyn, MER, MET, PDGFRb, RET, RON, Ros-1, Src, Aurora, TIE2, TYK2, Tie1, ZAP70). The antiproliferative effect of these compounds on the different cell lines and on the non transformed cells were tested at 12 different concentrations of 3-fold serially diluted compounds in 384 well plates as described above (in media lacking IL3). The IC50 values of the compounds the different cell lines were determined from dose response curves.
as §3, with “50 nl of serially diluted test compound (10-0.0001 mM in DMSO solution) is added to each well.” left out

The next assay concerns KM12 luc. As to the kind of experiment: KM12 luc cell proliferation assay (Table 8). It is filed as cell-based. As to conditions: KM12 luc cells; read-out: KM12 luc IC 50.
Assay [1] has as its target T2, full length rTrkA and mNGF (Rattus norvegicus, UniProt P35739).
T2 construct: co-expressing full length rTrkA and mNGF; expressed in transfected cells; host or cells: Ba/F3 cells
Description: Inhibition of proliferation of Ba/F3 cells co-expressing full length rTrkA and mNGF (BaF3/TrkA-NFG). Format: cell-based. The note with it: BaF3 TRKA-NGF cells, CTG readout.

The target of a further assay is T3, Tel-TrkA (Homo sapiens, UniProt P04629).
T3 construct: dimerization domain of Tel (ETV6) transcription factor (fusion partner, human ETV6 P41212); expressed in transfected cells; host or cells: luciferase expressing Ba/F3 murine hematopoietic progenitor cells; the other entry of the earlier key: ETV6 (P41212, Transcription factor ETV6)
Description: Inhibition of proliferation of Ba/F3 cells expressing Tel-TrkA (BaF3/Tel-TrkA, luciferase/Bright Glo readout). Format: cell-based. The note with it: read-out: Ba/F3 Tel-TrkA IC 50. The method, then:
as §1, §2, §4
as §3, with “50 nl of serially diluted test compound (10-0.0001 mM in DMSO solution) is added to each well.” left out

T3 sequence (P04629 510-796 limits assumed): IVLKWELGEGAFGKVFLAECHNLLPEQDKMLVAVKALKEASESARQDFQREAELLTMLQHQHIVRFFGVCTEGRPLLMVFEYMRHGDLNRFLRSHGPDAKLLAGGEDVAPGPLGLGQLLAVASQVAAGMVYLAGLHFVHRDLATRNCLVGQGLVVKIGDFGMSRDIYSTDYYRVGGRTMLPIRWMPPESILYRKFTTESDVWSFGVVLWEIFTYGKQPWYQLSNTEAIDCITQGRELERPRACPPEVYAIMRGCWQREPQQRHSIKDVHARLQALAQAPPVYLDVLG
T1 sequence (Q16620 538-822 limits assumed): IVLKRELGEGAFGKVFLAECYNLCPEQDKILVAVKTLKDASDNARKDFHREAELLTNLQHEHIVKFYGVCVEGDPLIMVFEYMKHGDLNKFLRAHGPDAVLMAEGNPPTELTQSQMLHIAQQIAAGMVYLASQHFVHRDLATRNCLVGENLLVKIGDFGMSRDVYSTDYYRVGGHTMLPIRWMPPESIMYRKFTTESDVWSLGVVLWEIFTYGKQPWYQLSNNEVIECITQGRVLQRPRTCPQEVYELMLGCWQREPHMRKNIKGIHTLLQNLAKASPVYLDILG
T2 sequence (P35739 33-799): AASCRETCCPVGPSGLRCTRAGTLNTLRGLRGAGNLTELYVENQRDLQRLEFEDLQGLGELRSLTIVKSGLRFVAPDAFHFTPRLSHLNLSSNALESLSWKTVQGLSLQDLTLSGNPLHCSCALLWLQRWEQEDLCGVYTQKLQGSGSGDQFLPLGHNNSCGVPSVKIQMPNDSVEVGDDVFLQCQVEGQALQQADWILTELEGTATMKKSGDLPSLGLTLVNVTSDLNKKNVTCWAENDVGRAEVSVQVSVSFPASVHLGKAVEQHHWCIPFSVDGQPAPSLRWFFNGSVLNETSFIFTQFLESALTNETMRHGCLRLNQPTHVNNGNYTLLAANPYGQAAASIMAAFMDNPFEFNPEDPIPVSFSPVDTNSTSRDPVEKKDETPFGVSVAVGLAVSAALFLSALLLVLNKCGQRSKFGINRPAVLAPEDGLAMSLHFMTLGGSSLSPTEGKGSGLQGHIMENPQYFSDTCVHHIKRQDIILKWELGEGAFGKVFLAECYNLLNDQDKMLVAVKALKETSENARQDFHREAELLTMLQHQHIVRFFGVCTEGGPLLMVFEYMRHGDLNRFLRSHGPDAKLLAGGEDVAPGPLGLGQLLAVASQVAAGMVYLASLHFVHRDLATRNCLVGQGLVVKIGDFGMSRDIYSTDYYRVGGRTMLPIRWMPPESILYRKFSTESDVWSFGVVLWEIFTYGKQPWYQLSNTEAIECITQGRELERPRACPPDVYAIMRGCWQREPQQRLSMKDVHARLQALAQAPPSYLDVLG
T2 sequence (P01139 122-241 partner): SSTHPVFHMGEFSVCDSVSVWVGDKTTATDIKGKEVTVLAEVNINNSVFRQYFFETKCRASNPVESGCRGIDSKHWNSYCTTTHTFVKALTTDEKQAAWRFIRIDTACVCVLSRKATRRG

For the molecule `O=C1CN(c2cccc(-c3cnc4ccc(N5CCCC5c5cccc(F)c5)nn34)n2)CCN1` (stereo not shown) [Table 4-Compound 5], the IC50 with parental BaF3 cells is above 10000 nM; at Tel-TrkB, 0.4 nM; in the assay with KM12 luc, 1.2 nM; at Tel-TrkA, 0.7 nM. Moreover, in assay [1], the “BaF3 TRKA-NGF CTG IC 50” value was 2.2 nM.

For `OC1CCN(c2ccc(-c3cccc(-c4cnc5ccc(N6CCCC6c6cccc(F)c6)nn45)n3)cn2)CC1` (stereo not shown) [Table 7-Compound 61], the IC50 in the assay with parental BaF3 cells was above 10000 nM; at Tel-TrkB, 7.9 nM; with KM12 luc it was 4 nM; at Tel-TrkA, 8.1 nM. Further, in assay [1], the “BaF3 TRKA-NGF CTG IC 50” value was 9.8 nM.

For `CN(C)C(=O)CN1CCN(c2ccc(-c3cnc4ccc(N5CCOCC5c5cccc(F)c5)nn34)cc2C#N)CC1` (stereo not shown) [Table 2-Compound 8], the IC50 in the assay with parental BaF3 cells is above 10000 nM; at Tel-TrkB, 2.2 nM; in the assay with KM12 luc, 5.2 nM; on Tel-TrkA, 1.6 nM. The “BaF3 TRKA-NGF CTG IC 50” value in assay [1] came out at 29 nM.

Regarding `O=C(NCCO)C1CCN(c2cccc(-c3cnc4ccc(N5CCOCC5c5cccc(F)c5)nn34)n2)CC1` (stereo not shown) [Table 7-Compound 12], the IC50 with parental BaF3 cells is above 10000 nM; at Tel-TrkB, 6.7 nM; in the assay with KM12 luc, 1.2 nM; at Tel-TrkA, 6.1 nM. Also, the “BaF3 TRKA-NGF CTG IC 50” value in assay [1] came to 8.1 nM.

Take `Cc1cnc(-c2cccc(-c3cnc4ccc(N5CCCC5c5cccc(F)c5)nn34)n2)[nH]1` (stereo not shown) [Table 7-Compound 3]: the IC50 came to 3870 nM in the assay on parental BaF3 cells, 6.6 nM at Tel-TrkB, 17 nM in the assay with KM12 luc and 6.9 nM at Tel-TrkA. Further, the “BaF3 TRKA-NGF CTG IC 50” value in assay [1] came to 19 nM.

Take `N#Cc1cc(-c2cnc3ccc(N4CCOCC4c4cccc(F)c4)nn23)ccc1F` (stereo not shown) [Table 2-Compound 6]: the IC50 with parental BaF3 cells was above 10000 nM; on Tel-TrkB, 44 nM; in the assay with KM12 luc, 56 nM; on Tel-TrkA, 58 nM. Besides, in assay [1], the “BaF3 TRKA-NGF CTG IC 50” value was found to be 78 nM.

Take `Fc1cccc(C2COCCN2c2ccc3ncc(-c4cccc(N5CC6CC5CN6)n4)n3n2)c1` (stereo not shown) [Table 7-Compound 9]: the IC50 in the assay with parental BaF3 cells is above 10000 nM; on Tel-TrkB, 63 nM; in the assay on KM12 luc, 14 nM; on Tel-TrkA, 59 nM. Besides, the “BaF3 TRKA-NGF CTG IC 50” value in assay [1] is 53 nM.

Turning to `Fc1cccc(C2COCCN2c2ccc3ncc(-c4ccccn4)n3n2)c1` (stereo not shown) [Table 2-Compound 4], the IC50 in the assay with parental BaF3 cells was above 10000 nM; on Tel-TrkB, 5.8 nM; in the assay with KM12 luc, 8.3 nM; on Tel-TrkA, 8.6 nM. In addition, in assay [1], the “BaF3 TRKA-NGF CTG IC 50” value was determined as 17 nM.

Regarding `OC1CCN(c2cccc(-c3cnc4ccc(N5CCOCC5c5cccc(F)c5)nn34)n2)CC1` (stereo not shown) [Table 7-Compound 1], the IC50 with parental BaF3 cells was above 10000 nM; at Tel-TrkB, 17 nM; in the assay with KM12 luc it was 7.6 nM; at Tel-TrkA, 17 nM. Further, the “BaF3 TRKA-NGF CTG IC 50” value in assay [1] worked out at 30 nM.

Regarding `OCC(O)CNc1cccc(-c2cnc3ccc(N4CCCC4c4cccc(F)c4)nn23)n1` (stereo not shown) [Table 4-Compound 16], the IC50 was above 10000 nM in the assay with parental BaF3 cells, 1.5 nM on Tel-TrkB, 2.2 nM in the assay with KM12 luc and 6.8 nM at Tel-TrkA. Besides, the “BaF3 TRKA-NGF CTG IC 50” value in assay [1] came to 5.2 nM.

`N#Cc1cc(-c2cnc3ccc(N4CCOCC4c4cccc(F)c4)nn23)ccc1N1CCC(O)CC1` (stereo not shown) [Table 2-Compound 7]: the IC50 in the assay on parental BaF3 cells is above 10000 nM; on Tel-TrkB it was 230 nM; with KM12 luc it was 140 nM; on Tel-TrkA it was 83 nM. Moreover, the “BaF3 TRKA-NGF CTG IC 50” value in assay [1] was 550 nM.

As to `O=C(O)C1CN(c2cccc(-c3cnc4ccc(N5CCCC5c5cccc(F)c5)nn34)n2)C1` (stereo not shown) [Table 7-Compound 116], the IC50 with parental BaF3 cells is above 9100 nM; on Tel-TrkB, 3 nM; with KM12 luc, 3 nM; at Tel-TrkA it was 3 nM. The “BaF3 TRKA-NGF CTG IC 50” value in assay [1] was found to be 8 nM.

Take `CC(F)C(=O)N(C)C1CCN(c2cccc(-c3cnc4ccc(N5CCCC5c5cccc(F)c5)nn34)n2)C1` (stereo not shown) [Table 7-Compound 201]: the IC50 in the assay with parental BaF3 cells was above 11000 nM; on Tel-TrkB it was 15 nM; in the assay with KM12 luc it was 10 nM; at Tel-TrkA, 13 nM. For the same molecule, in assay [1], the “BaF3 TRKA-NGF CTG IC 50” value came to 20 nM.

As to `CC(=O)N[C@@H]1CCN(c2cccc(-c3cnc4ccc(N5CCCC5c5cccc(F)c5)nn34)n2)C1` (stereo partly shown) [Table 7-Compound 119], the IC50 in the assay with parental BaF3 cells is above 11000 nM; on Tel-TrkB, 3 nM; in the assay with KM12 luc, 2 nM; on Tel-TrkA, 3 nM. The “BaF3 TRKA-NGF CTG IC 50” value in assay [1] turned out to be 4 nM.

Take `Fc1cccc(C2COCCN2c2ccc3ncc(-c4cccc(OC5CCNCC5)n4)n3n2)c1` (stereo not shown) [Table 2-Compound 18]: the IC50 in the assay on parental BaF3 cells was above 10000 nM; at Tel-TrkB, 36 nM; in the assay with KM12 luc, 22 nM; at Tel-TrkA, 36 nM. Further, the “BaF3 TRKA-NGF CTG IC 50” value in assay [1] is 56 nM.

As for `N#Cc1ccc(-c2cnc3ccc(N4CCOCC4c4cccc(F)c4)nn23)cc1` (stereo not shown) [Table 2-Compound 1], the results for the IC50 with parental BaF3 cells and in the assay on KM12 luc were above 9690 nM and 7 nM, respectively.

For the molecule `CCOC(=O)N1CCC(n2c(=O)[nH]c3cc(-c4cnc5ccc(N6CCOCC6c6cccc(F)c6)nn45)ccc32)CC1` (stereo not shown) [Table 2-Compound 19], the IC50 came out at 5050 nM with parental BaF3 cells, 1700 nM on Tel-TrkB and 2170 nM at Tel-TrkA. Besides, in assay [1], the “BaF3 TRKA-NGF CTG IC 50” value was 1420 nM.

On to `OCCNc1ncc(-c2cnc3ccc(N4CCCC4c4cccc(F)c4)nn23)cn1` (stereo not shown) [Table 7-Compound 171], for which the values for the IC50 in the assay with parental BaF3 cells, at Tel-TrkB and on Tel-TrkA were above 11000 nM, 129 nM and 224 nM, respectively. The “BaF3 TRKA-NGF CTG IC 50” value in assay [1] was determined as 238 nM.

`Fc1cccc(C2COCCN2c2ccc3ncc(-c4cccc(NCCN5CCNCC5)n4)n3n2)c1` (stereo not shown) [Table 7-Compound 10]: the IC50 was above 10000 nM in the assay on parental BaF3 cells, 71 nM on Tel-TrkB and 61 nM at Tel-TrkA. In addition, the “BaF3 TRKA-NGF CTG IC 50” value in assay [1] was determined as 77 nM.

In the case of `CCOC(=O)C1CCN(c2cccc(-c3cnc4ccc(N5CCOCC5c5cccc(F)c5)nn34)n2)CC1` (stereo not shown) [Table 7-Compound 17], the IC50 was above 10000 nM with parental BaF3 cells, 44 nM on Tel-TrkB and 81 nM at Tel-TrkA. The “BaF3 TRKA-NGF CTG IC 50” value in assay [1] amounted to 93 nM.

With `O=C(Nc1cnc(-c2cnc3ccc(N4CCCC4c4cccc(F)c4)nn23)cn1)C1CC1` (stereo not shown) [Table 3-Compound 41], the values for the IC50 with parental BaF3 cells, on Tel-TrkB and on Tel-TrkA were 200 nM, 210 nM and 200 nM, respectively. In addition, the “BaF3 TRKA-NGF CTG IC 50” value in assay [1] was 110 nM.
